In the METLIN SMRT retention time set (Domingo-Almenara et al. 2019) one finds RP-LC retention time data, which are given here for 80 compounds.

This data set can be described thus: gradient 5% acetonitrile 3 min, to 50% in 2 min, to 85% in 15 min, held 3 min, 100 µL/min. As to conditions: column: Zorbax Extend-C18 2.1 x 50 mm; eluents: water / acetonitrile, 0.1% formic acid. The gist of the method: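 Standards, all pure, were combined into mixtures of ~100 molecules and run at 100 μL/min on a Zorbax Extend-C18 column (2.1 × 50 mm, 1.8 μm) with water and acetonitrile, each containing 0.1% formic acid. A coupled quadrupole time-of-flight mass spectrometer operated in positive and negative ionization mode. Retention time values come from computationally picked adduct peaks, each inspected manually.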
Consider `O=C(c1cc(Cl)ccc1F)N1CCC2(CC1)NC(=O)N(Cc1ccc(F)cc1)C2=O`, for which the RP-LC retention time amounted to 852 s. Compound `CC(C)Oc1ccc(CNC(=O)c2nc(N3CCOCC3)c3ccccc3n2)cc1` yielded an RP-LC retention time of 738 s. To `O=C(NCc1cccnc1Oc1ccccc1)c1cnn2cccnc12` belongs 695 s. In turn, `CNC(=O)Nc1ccc2nc3n(c(=O)c2c1)CCCC3` showed an RP-LC retention time of 559 s.

Take `O=S(=O)(c1cccc(-c2nnc(-c3ccc(Cl)cc3)o2)c1)N1CCCC1`: the RP-LC retention time was found to be 1050 s. To `COc1ccc(OC)c(CN2C(=O)c3ccccc3C2C(=O)NCC2CCCO2)c1` (stereo not given) belongs 641 s; to `O=C(CSc1ccc(N2CCCC(C(=O)NC3CC3)C2)nn1)Nc1ccc(C(F)(F)F)cc1` (stereo not given), 729 s. To `CC(C)N1C(=O)c2cccnc2Sc2cc(NC(=O)Cc3cccc(F)c3)ccc21` belongs 876 s; to `COc1ccc(NC(=O)N2CCC(c3nc(C(=O)N(C)C)c(C)o3)CC2)cc1Cl`, 840 s.

Regarding `COc1cc2c(cc1OC)CN(C(=O)c1cc(-c3ccc(F)cc3)c[nH]1)CC2`, the RP-LC retention time was 847 s. To `Cc1cc(-c2nn3c(-c4cccc(F)c4)nnc3s2)c2ccccc2n1` belongs 887 s; to `O=C(c1csc(-c2ccc(N3CCOCC3)nc2)n1)N1CCOCC1`, 626 s; to `CCOC(=O)Cc1ccc(NC(=O)NC2CCN(c3ccccc3)C2=O)cc1` (stereo not given), 742 s. To `O=C(Cn1c(=O)c2cc(C3CC3)nn2c2ncccc21)Nc1ccccc1` belongs 752 s; to `O=C(CN1CCCc2nc(C3CC3)ncc2C1=O)NCc1cccs1`, 682 s; to `CC(C)(C)C(=O)OCOP(=O)(COCCn1cnc2c(N)ncnc21)OCOC(=O)C(C)(C)C`, 725 s. On to `CC(CNC(=O)c1nc(Cn2c(=O)oc3ccc(Cl)cc32)no1)c1ccccc1` (stereo not given), for which the RP-LC retention time was 796 s. In turn, `O=C(Nc1ccc2nc(N3CCCN(c4ncccn4)CC3)cc(C(=O)O)c2c1)c1ccc(F)cc1` registered an RP-LC retention time of 616 s. Then `CCN1c2cc(F)ccc2C(=O)NC12CCN(C(=O)c1cccc(F)c1)CC2`, with 791 s; and `O=C(C1CCN(c2ncnc3c2sc2ncccc23)CC1)N1CCN(c2ccccn2)CC1`, with 586 s.

`CCOc1cc(Nc2ccc(NC(=O)c3ccco3)cc2)nc(C)n1` displayed an RP-LC retention time of 591 s. To `N#Cc1c(C(F)(F)F)cc(-c2ccccc2)nc1SCCC(N)=O` belongs 839 s; to `O=C(NCC(O)C1CCCCC1)c1cccc(C(F)(F)F)c1` (stereo not given), 840 s; to `CCC(=O)Nc1ccc(-n2cnc(C(=O)NC3CCCCCC3)c2)nc1`, 759 s. Then `COc1cccc(S(=O)(=O)N2CCc3nc(-c4ccccc4)ncc3C2)c1`, with 1050 s. Then `COC(=O)c1cccc(N2C=C(C#N)S(=O)(=O)c3ccc(C)cc32)c1`, with 881 s; and `COc1ccc(C(=O)NC2CCCCCC2)cc1CN1CC(=O)N2CCCC2C1=O` (stereo not given), with 702 s; and `CCn1cc(S(=O)(=O)N2CCC3(CC2)CC(OCc2ccccc2)CCO3)cn1` (stereo not given), with 897 s. With `CCC(C)C(NC(=O)c1sccc1C)C(=O)Nc1nc2ccccc2[nH]1` (stereo not given), the RP-LC retention time is 746 s. Then `NC(=O)N/N=C1\CC2CC1C1C=CCC21` (stereo not given), with 768 s; and `O=C(NC1CC(=O)N(C2CC2)C1)c1cc2ccccc2[nH]1` (stereo not given), with 638 s; and `COc1ccc(NC(=O)C2CCN(S(=O)(=O)c3ccc4c(c3)NC(=O)C(C)O4)CC2)cc1` (stereo not given), with 783 s. Compound `CCNC(=O)N1CCC(OC(C)=O)CC1` came in with an RP-LC retention time of 586 s. To `O=C(Nc1ccc(N2CCOCC2)cc1)C1CCCN(c2ncc(-c3ccccc3)cn2)C1` (stereo not given) belongs 925 s; to `Cc1ccc(N2CC(c3nc(-c4ccc5c(c4)OCO5)no3)CC2=O)cc1Cl` (stereo not given), 1050 s.

In the case of `CC(CCc1ccccc1)NC(=O)Cc1nnc(-c2ccccn2)o1` (stereo not given), the RP-LC retention time came to 744 s. To `CCC(Oc1ccc(=O)n(-c2ccc(F)cc2)n1)C(=O)NCc1ccc(C)o1` (stereo not given) belongs 831 s; to `CCC(=O)Nc1ccc2c(c1)Sc1ncccc1C(=O)N2C(C)C`, 704 s. Then `CC(C)c1ccc(-c2cc3c4nn(CC(=O)NC5CCCC5)c(=O)n4ccn3n2)cc1`, with 983 s; and `CC(=O)c1ccc(NS(=O)(=O)c2ccc3ccccc3c2)cc1`, with 822 s. Then `CCn1cc(C(=O)NCc2ccccc2C)c(S(=O)(=O)N2CCSCC2)n1`, with 1120 s; and `CCn1cc(C)c(C(=O)O)c1CC(=O)NCc1cccs1`, with 733 s; and `NC(=O)c1c(NC(=O)CSc2ncnc3sc4c(c23)CCC4)sc2c1CCC2`, with 1100 s. Take `CCOc1ccc(CNC(=O)c2ccc3c(c2)nc2n3CCN(C3CCCCC3)C2=O)cc1`: the RP-LC retention time was found to be 830 s.

On to `COc1cc(OC)cc(C(=O)Nc2nc(-c3ccc4c(c3)NC(=O)C(C)O4)c(C)s2)c1` (stereo not given), for which the RP-LC retention time worked out at 962 s. In turn, `O=C(Cn1c(=O)cc(-c2nc(C3CC3)no2)c2ccccc21)NC1CCCCC1` showed an RP-LC retention time of 932 s. To `O=C(NC1CCCC1)C1CCCN(c2nccnc2Sc2ccccc2)C1` (stereo not given) belongs 1020 s; to `Cc1ccc2c(c1)N(S(C)(=O)=O)CCC(C(=O)Nc1ccc(OC(C)C)cc1)O2` (stereo not given), 976 s; to `CCCNC(=O)c1nc2ccccn2c1-c1ccc(F)cc1`, 730 s. Then `Cc1cc(NC(=O)Cc2cc(-c3ccccc3F)on2)no1`, with 772 s. Then `COc1ccc(Cc2nc3nccc(-c4cccs4)n3n2)cc1`, with 871 s; and `O=C(c1cncc(Br)c1)N1CCN(c2ccc(-c3ccco3)nn2)CC1`, with 603 s; and `COCCCNC(=O)C1CCN(Cc2cc3ccccc3n2Cc2ccccc2C)CC1`, with 718 s. For the compound `COc1cccc(C(=O)NCC(=O)Nc2nc3ccccc3[nH]2)c1`, the RP-LC retention time is 624 s. To `Fc1ccccc1-c1noc(Cc2nnc(-c3cccc(Cl)c3)o2)n1` belongs 1080 s; to `CCc1ccc(CNC(=O)C2CCCN(c3nccnc3Sc3ccccc3)C2)cc1` (stereo not given), 1140 s. With `Cc1noc(C)c1Cc1ccc(C(=O)N2CCCC(c3[nH]ccc3C(N)=O)C2)o1` (stereo not given), the RP-LC retention time turned out to be 649 s. In the case of `O=C(Cn1ccc2ccccc21)N1CCN(c2ccc(-c3ccccn3)nn2)CC1`, the RP-LC retention time is 652 s.

`CCCCC(=O)N1CCN(c2cc(C)nc(Nc3ccc(C)cc3)n2)CC1` displayed an RP-LC retention time of 693 s. Turning to `CC(C)(C)n1nnnc1C1CC2(CCOCC2)C(=O)N1Cc1ccc(F)cc1F` (stereo not given), the RP-LC retention time came to 809 s. Then `O=S(=O)(c1ccc2c(c1)OCCO2)N1CCN(S(=O)(=O)C2CC2)CC1`, with 762 s; and `CC(C)n1cnnc1CC1CN(C(=O)Nc2ccc(Cl)cc2C(F)(F)F)C1`, with 693 s. To `Cn1cc(CC(=O)NCc2nc(-c3ccccc3)no2)c2ccccc21` belongs 837 s; to `CCc1ccc(N2CC(c3noc(-c4cc(OC)c(OC)c(OC)c4)n3)CC2=O)cc1` (stereo not given), 927 s. On to `Cc1nc(OCC(=O)Nc2cc(Cl)ccc2Cl)c2ccccc2n1`, for which the RP-LC retention time was found to be 836 s. To `CN(CC1COCCO1)c1ccc(C(=O)O)cc1NC(=O)c1ccccc1Cl` (stereo not given) belongs 771 s. Regarding `CCN(Cc1ccncc1)C1CN(S(=O)(=O)c2ccc3c(c2)CCC3)C1`, the RP-LC retention time is 686 s. Then `COc1ccc(NC(=O)c2cnc(N3CCN(c4ccccc4OC)CC3)nc2N)cc1`, with 737 s; and `O=C(Cc1ccsc1)N1CCC2(CC1)N=C(c1ccc(Cl)cc1)NO2`, with 865 s. Then `CCOC(=O)c1cc2n(n1)CC(C)(C(=O)NC1CCCC1)N(Cc1cccc(F)c1)C2=O` (stereo not given), with 907 s; and `CCc1onc(C)c1C1CCCN1C(=O)Nc1cc(C)ccc1OC` (stereo not given), with 935 s. Turning to `COc1ccc(NC(=O)C2CCN(c3cc(N4CCCC4)ncn3)CC2)cc1OC`, the RP-LC retention time stood at 616 s.

For `CCS(=O)(=O)N1CCC(F)(c2nc(-c3ccccc3)no2)CC1`, the RP-LC retention time turned out to be 952 s. To `C=CCn1nc2ccc(S(=O)(=O)N3CCCCC3)cn2c1=O` belongs 778 s; to `Cc1ccc(-c2csc(Cc3nc(-c4ccc(F)cc4)no3)n2)cc1C`, 1320 s; to `COc1ccc(CN2C=C(C(=O)OCc3nc(-c4cccc(OC)c4)no3)C(C)=NS2(=O)=O)cc1`, 1130 s.

Compound `O=C(Cc1ccsc1)N1CCC2(CC1)N=C(c1ccccc1)NO2` showed an RP-LC retention time of 774 s. Then `CCCn1cnc2c(-c3ccccc3)csc2c1=O`, with 922 s; and `CCc1ccc(Oc2cc(N3CCC(C(=O)NCCc4ccccn4)CC3)ncn2)cc1`, with 656 s; and `Cn1c(N2CCC(C(=O)NCc3ccccn3)CC2)cc(=O)n(C)c1=O`, with 566 s.
